Reference: PubChem BioAssay (NCI)
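All cell lines were grown in 96-well plates and treated with compound for 48 hours. GI50 is the concentration that inhibits growth by half. TGI: total growth inhibition.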

Tests used:
Experiment in all cases: inhibition of tumour cell growth, NCI panel, 48 h
[1] = tested on: 786-0 renal
[2] = tested on: A498 renal
[3] = tested on: A549 NSCLC
[4] = tested on: ACHN renal
[5] = tested on: BT-549 breast
[6] = tested on: CAKI-1 renal
[7] = tested on: CCRF-CEM leukemia
[8] = tested on: COLO 205 colon
[9] = tested on: DU-145 prostate
[10] = tested on: EKVX NSCLC
[11] = tested on: HCC-2998 colon
[12] = tested on: HCT-116 colon
[13] = tested on: HCT-15 colon
[14] = tested on: HL-60(TB) leukemia
[15] = tested on: HOP-62 NSCLC
[16] = tested on: HOP-92 NSCLC
[17] = tested on: HS 578T breast
[18] = tested on: HT29 colon
[19] = tested on: IGROV1 ovarian
[20] = tested on: K-562 leukemia
[21] = tested on: KM12 colon
[22] = tested on: LOX IMVI melanoma
[23] = tested on: M14 melanoma
[24] = tested on: MALME-3M melanoma
[25] = tested on: MCF7 breast
[26] = tested on: MDA-MB-231 breast
[27] = tested on: MDA-MB-435
[28] = tested on: MOLT-4 leukemia
[29] = tested on: NCI-H226 lung
[30] = tested on: NCI-H23 lung
[31] = tested on: NCI-H460 lung
[32] = tested on: NCI-H522 lung
[33] = tested on: NCI/ADR-RES ovarian
[34] = tested on: OVCAR-3 ovarian
[35] = tested on: OVCAR-4 ovarian
[36] = tested on: OVCAR-5 ovarian
[37] = tested on: OVCAR-8 ovarian
[38] = tested on: PC-3 prostate
[39] = tested on: RPMI-8226 leukemia
[40] = tested on: RXF 393 renal
[41] = tested on: SF-268 CNS
[42] = tested on: SF-295 CNS
[43] = tested on: SF-539 CNS
[44] = tested on: SK-MEL-2 melanoma
[45] = tested on: SK-MEL-28 melanoma
[46] = tested on: SK-MEL-5 melanoma
[47] = tested on: SK-OV-3 ovarian
[48] = tested on: SN12C renal
[49] = tested on: SNB-19 CNS
[50] = tested on: SNB-75 CNS
[51] = tested on: SW-620 colon
[52] = tested on: T-47D breast
[53] = tested on: TK-10 renal
[54] = tested on: U251 CNS
[55] = tested on: UACC-257 melanoma
[56] = tested on: UACC-62 melanoma
[57] = tested on: UO-31 renal

SMILES: CC(=O)/C(=C\c1c(-c2ccccc2)[nH]c2ccccc12)S(C)(=O)=O
- GI50 [1]: 3.44 µM
- TGI [1]: > 35.8 µM
- GI50 [2]: 3.88 µM
- TGI [2]: > 54.8 µM
- GI50 [3]: 7.14 µM
- TGI [3]: > 100 µM
- GI50 [4]: 5.64 µM
- TGI [4]: > 100 µM
- GI50 [5]: 2.77 µM
- TGI [5]: > 100 µM
- GI50 [6]: 5.62 µM
- TGI [6]: > 100 µM
- GI50 [7]: 4.74 µM
- TGI [7]: > 100 µM
- GI50 [8]: 2.7 µM
- TGI [8]: 13.5 µM
- GI50 [9]: 3.47 µM
- TGI [9]: 15.5 µM
- GI50 [10]: 6.34 µM
- TGI [10]: > 100 µM
- GI50 [11]: 6.61 µM
- TGI [11]: 33.9 µM
- GI50 [12]: 2.86 µM
- TGI [12]: > 100 µM
- GI50 [13]: 1.93 µM
- TGI [13]: > 100 µM
- GI50 [14]: 3.51 µM
- TGI [14]: 20.9 µM
- GI50 [15]: 7.95 µM
- TGI [15]: > 43.5 µM
- GI50 [16]: 3.11 µM
- TGI [16]: > 75 µM
- GI50 [17]: 1.55 µM
- TGI [17]: 4.88 µM
- GI50 [18]: 1.6 µM
- TGI [18]: > 40.1 µM
- GI50 [19]: 6.88 µM
- TGI [19]: > 54.9 µM
- GI50 [20]: 0.671 µM
- TGI [20]: > 100 µM
- GI50 [21]: 2.42 µM
- TGI [21]: 19.2 µM
- GI50 [22]: 3.36 µM
- TGI [22]: > 66.3 µM
- GI50 [23]: 1.64 µM
- TGI [23]: 5.58 µM
- GI50 [24]: 4.72 µM
- TGI [24]: > 100 µM
- GI50 [25]: 2.66 µM
- TGI [25]: > 100 µM
- GI50 [26]: 4.82 µM
- TGI [26]: > 73.9 µM
- GI50 [27]: 0.313 µM
- TGI [27]: 1.97 µM
- GI50 [28]: 4.24 µM
- TGI [28]: > 100 µM
- GI50 [29]: 13 µM
- TGI [29]: > 100 µM
- GI50 [30]: 4 µM
- TGI [30]: > 100 µM
- GI50 [31]: 2.78 µM
- TGI [31]: 10.7 µM
- GI50 [32]: 3.27 µM
- TGI [32]: > 25.7 µM
- GI50 [33]: 1.8 µM
- TGI [33]: 8.97 µM
- GI50 [34]: 2.33 µM
- TGI [34]: 5.35 µM
- GI50 [35]: 3.71 µM
- TGI [35]: > 100 µM
- GI50 [36]: 13.9 µM
- TGI [36]: > 100 µM
- GI50 [37]: 5.09 µM
- TGI [37]: > 100 µM
- GI50 [38]: 4.46 µM
- TGI [38]: > 100 µM
- GI50 [39]: 2.95 µM
- TGI [39]: 21.9 µM
- GI50 [40]: 2.56 µM
- TGI [40]: 8.54 µM
- GI50 [41]: 4.14 µM
- TGI [41]: > 93.9 µM
- GI50 [42]: 3.85 µM
- TGI [42]: > 61.4 µM
- GI50 [43]: 1.89 µM
- TGI [43]: 4.66 µM
- GI50 [44]: 5.19 µM
- TGI [44]: > 24.2 µM
- GI50 [45]: 3.34 µM
- TGI [45]: > 100 µM
- GI50 [46]: 1.87 µM
- TGI [46]: > 43 µM
- GI50 [47]: 3.96 µM
- TGI [47]: > 32.5 µM
- GI50 [48]: 6.06 µM
- TGI [48]: > 100 µM
- GI50 [49]: 3.3 µM
- TGI [49]: > 58.7 µM
- GI50 [50]: 1.45 µM
- TGI [50]: 5.2 µM
- GI50 [51]: 2.08 µM
- TGI [51]: > 100 µM
- GI50 [52]: 2.58 µM
- TGI [52]: 26 µM
- GI50 [53]: 8.21 µM
- TGI [53]: > 100 µM
- GI50 [54]: 2.79 µM
- TGI [54]: > 63 µM
- GI50 [55]: 24.1 µM
- TGI [55]: > 100 µM
- GI50 [56]: 3.17 µM
- TGI [56]: > 100 µM
- GI50 [57]: 5.3 µM
- TGI [57]: > 100 µM
